# Measured values published in the NIST ThermoML archive (doi:10.1016/j.fluid.2012.10.015).
# Numbers after ± are expanded uncertainties.
# Experiments:
# [1] = Liquid; for mass density: 101.33 kPa, Vibrating tube method; for vapor or sublimation pressure: Closed cell (Static) method
# [2] = refractive index (Na D-line) (dimensionless); conditions: 298.15 K; 101.33 kPa; Liquid; Standard Abbe refractometry
Compound,mass density ([1]; 298.15 K) [kg/m3],vapor or sublimation pressure ([1]; 298.15 K) [kPa],vapor or sublimation pressure ([1]; 308.15 K) [kPa],vapor or sublimation pressure ([1]; 318.15 K) [kPa],refractive index [2]
CCCCCl [1-chlorobutane],881.172 ± 2.2,13.72 ± 0.15,20.66 ± 0.19,31.46 ± 0.23,1.39953 ± 0.00068
CCCCCCl [1-chloropentane],877.089 ± 2.2,4.24 ± 0.07,7.09 ± 0.08,10.91 ± 0.09,1.41015 ± 0.00068
CC[N+](=O)[O-] [nitroethane],1044.21 ± 2.3,2.95 ± 0.05,4.69 ± 0.06,7.24 ± 0.07,1.38951 ± 0.00071
C[N+](=O)[O-] [nitromethane],1130.87 ± 2.3,4.83 ± 0.07,7.5 ± 0.09,12.57 ± 0.11,1.37956 ± 0.00072
